Consider 16 molecules from PubChem BioAssay (NCI).

Some test systems named below: T-47D breast; HCT-15 colon; UACC-257 melanoma; NCI-H460 lung; TK-10 renal; A498 renal; OVCAR-8 ovarian; MDA-MB-231 breast; MOLT-4 leukemia; NCI-H522 lung.
Common to all, as to test: NCI tumour cell line growth inhibition, 48 h

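Compound exposure: 48 hours, 5 concentrations, 96-well plates. GI50: concentration for 50% inhibition of growth. TGI: total growth inhibition.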

With `CCOC(=O)c1nc2cc(C(F)(F)F)ccc2nc1Nc1ccc(F)cc1`, the TGI in the assay on T-47D breast, in the assay with HCT-15 colon, in the assay on UACC-257 melanoma, with NCI-H460 lung, in the assay with TK-10 renal and in the assay on A498 renal was more than 100 µM in each case. For the same molecule, the TGI with OVCAR-8 ovarian and in the assay with MDA-MB-231 breast was more than 100 µM throughout.

On to `Nc1nn(CC(O)CO)c(=O)s1` (stereo unspecified), for which the TGI in the assay with HCT-15 colon, with UACC-257 melanoma, in the assay with NCI-H460 lung, in the assay on MOLT-4 leukemia, in the assay on TK-10 renal and in the assay on A498 renal was more than 100 µM in each case. Further, the TGI in the assay on OVCAR-8 ovarian is more than 100 µM.

As to `CC1(C)OCC(COC(=O)NCn2cc(-c3ccccc3)nn2)O1` (stereo unspecified), the TGI in the assay with NCI-H522 lung, in the assay on HCT-15 colon, in the assay with UACC-257 melanoma, in the assay with NCI-H460 lung, in the assay with MOLT-4 leukemia and in the assay on TK-10 renal was more than 100 µM throughout. Further, the TGI with OVCAR-8 ovarian and with MDA-MB-231 breast was more than 100 µM in each case.

As for `C=CC[N+](CCO)(CCO)CCCCCCCCCCCCCCCCCC`, the TGI in the assay on NCI-H522 lung is 13.5 µM; in the assay on HCT-15 colon, 41.4 µM; with UACC-257 melanoma, 17.2 µM; in the assay on NCI-H460 lung it was 19.2 µM; in the assay with MOLT-4 leukemia it was 3.85 µM; with A498 renal, 42.5 µM. In the assay on OVCAR-8 ovarian, this molecule registered a TGI of 59.5 µM.

Turning to `N#Cc1ccc(Nc2cnc3ccc(N)cc3n2)cc1`, the TGI with NCI-H522 lung, in the assay with HCT-15 colon, with UACC-257 melanoma, with NCI-H460 lung, in the assay on MOLT-4 leukemia and with TK-10 renal was more than 100 µM each time. This molecule returned a TGI with OVCAR-8 ovarian of more than 100 µM.

Consider `C[C@H](N)C(=O)N[C@@H]1[C@H]2C(=C(O)C[C@@H](O)[C@@H]2O)C(=O)O[C@@H]1C`, for which the TGI in the assay on NCI-H522 lung, in the assay on HCT-15 colon, with UACC-257 melanoma, in the assay with NCI-H460 lung, with MOLT-4 leukemia and in the assay with A498 renal was more than 100 µM throughout. The TGI with OVCAR-8 ovarian is more than 100 µM.

Regarding `O=C1C2=C(CCCCC2)C2CCCCC12O` (stereo unspecified), the TGI in the assay with NCI-H522 lung, with UACC-257 melanoma, in the assay with NCI-H460 lung, in the assay with MOLT-4 leukemia, in the assay on TK-10 renal and with OVCAR-8 ovarian was more than 100 µM in each case.

`CCOC(=O)c1cn(CC)c2cc3c(cc2c1=O)CCS3(=O)=O`: the TGI in the assay on T-47D breast, in the assay with HCT-15 colon, in the assay on NCI-H460 lung, in the assay with MOLT-4 leukemia, with TK-10 renal and with A498 renal was more than 100 µM each time. Further, the TGI in the assay with OVCAR-8 ovarian and with MDA-MB-231 breast was more than 100 µM in each case.

`Cn1cc(-c2nc(-c3c[nH]c4ccncc34)cs2)c2cc(F)ccc21`: the GI50 in the assay on NCI-H522 lung is 1.67 µM; with HCT-15 colon, 1.33 µM; with UACC-257 melanoma it was 1.97 µM; with NCI-H460 lung, 1.77 µM; in the assay with TK-10 renal, 2.11 µM; in the assay with A498 renal, 1.8 µM. Also, the GI50 was 2.11 µM with OVCAR-8 ovarian and 1.55 µM in the assay with MDA-MB-231 breast. The TGI was found to be 3.23 µM in the assay on NCI-H522 lung; 2.71 µM with HCT-15 colon; 3.56 µM with UACC-257 melanoma; 3.42 µM with NCI-H460 lung; 3.69 µM with TK-10 renal; 3.43 µM in the assay on A498 renal. Further, the results for the TGI in the assay on OVCAR-8 ovarian and with MDA-MB-231 breast were 4.79 µM and 3.1 µM, respectively.

On to `CCOC(=O)C1C[C@H]2CO[C@H](c3ccccc3)N2C1=O` (stereo partly specified), for which the TGI in the assay on T-47D breast, in the assay on NCI-H522 lung, in the assay with HCT-15 colon, in the assay with UACC-257 melanoma, in the assay on NCI-H460 lung and in the assay with MOLT-4 leukemia was more than 100 µM throughout. The TGI with TK-10 renal, in the assay with OVCAR-8 ovarian and in the assay on MDA-MB-231 breast was more than 100 µM in each case.

Turning to `CC1CC(=O)Nc2ccc(N=NN(C)C)cc2N1C=O` (stereo unspecified), the TGI in the assay on T-47D breast, in the assay with NCI-H522 lung, in the assay on HCT-15 colon, in the assay on UACC-257 melanoma, in the assay with NCI-H460 lung and in the assay with MOLT-4 leukemia was more than 100 µM throughout. The TGI in the assay with TK-10 renal, with OVCAR-8 ovarian and with MDA-MB-231 breast was more than 100 µM throughout.

For the molecule `Cc1cc2c(c(C(=O)NCCC(=O)N[C@@H](C)C(=O)OCc3ccccc3)c1)Oc1c(cc(C)cc1C(=O)NCCC(=O)N[C@@H](C)C(=O)OCc1ccccc1)S2`, the TGI in the assay on T-47D breast, in the assay with HCT-15 colon, in the assay on UACC-257 melanoma, in the assay with NCI-H460 lung, in the assay with MOLT-4 leukemia and with A498 renal was more than 100 µM in each case. Further, the TGI in the assay with OVCAR-8 ovarian and in the assay with MDA-MB-231 breast was more than 100 µM throughout.

For the molecule `C[C@H](CN1CC(=O)NC(=O)C1)N1CC(=O)NC(=O)C1`, the TGI in the assay on NCI-H522 lung was more than 71.2 µM; in the assay with HCT-15 colon, more than 100 µM; in the assay with UACC-257 melanoma it was more than 100 µM; in the assay on NCI-H460 lung, more than 100 µM; with MOLT-4 leukemia it was more than 47.5 µM; with A498 renal, more than 100 µM. In addition, the TGI in the assay on OVCAR-8 ovarian is more than 100 µM.

Take `NC(=O)CCC(NC(=O)c1cccc2c(=O)c3ccccc3[nH]c12)C(=O)O` (stereo unspecified): the TGI in the assay on NCI-H522 lung, with HCT-15 colon, with MOLT-4 leukemia, in the assay with TK-10 renal, in the assay with A498 renal and with OVCAR-8 ovarian was more than 100 µM in each case. In the assay with MDA-MB-231 breast, this molecule had a TGI of more than 100 µM.

As for `Cc1ccc(C(=O)C2=CN=C3C(=O)N(c4ccccc4)N(C)C3(C)C2=N)cc1` (stereo unspecified), the TGI in the assay with NCI-H522 lung, in the assay with HCT-15 colon, with UACC-257 melanoma, in the assay on NCI-H460 lung, in the assay with MOLT-4 leukemia and in the assay on TK-10 renal was more than 100 µM in each case. Moreover, the TGI in the assay on A498 renal, in the assay with OVCAR-8 ovarian and in the assay with MDA-MB-231 breast was more than 100 µM in each case.

For the molecule `CNc1ncnc2c1nnn2C`, the TGI in the assay on T-47D breast, in the assay with NCI-H522 lung, with HCT-15 colon, in the assay on UACC-257 melanoma, in the assay on MOLT-4 leukemia and with TK-10 renal was more than 100 µM throughout. Moreover, the TGI in the assay on A498 renal and in the assay on OVCAR-8 ovarian was more than 100 µM throughout.
